In publication PMC5567816 (ACS chemical biology, 2017):
Entries after “also recorded” stand apart in the source; their conditions may differ.

Assays:
HCT116 and HT29 cells = settings: 2 μM for 24 h; cited from earlier work
RAW264.7 cells [1] = assay: Western blot of RAW264.7 cells, protein acetylation; type: cell-based; settings: tubA at 0.5 μM
Hek293 cells [2] = assay: global formylation levels of Hek293 cells; type: cell-based; settings: inhibitors 1 μM, tubA 0.5 μM, 24 h
Hek293 cells [3] = assay: global valerylation levels of Hek293 cells; type: cell-based; settings: inhibitors 1 μM, tubA 0.5 μM, 24 h
HDAC6 = HDAC6 specific inhibitor; cited from earlier work
Hek293 cells [4] = assay: Western blot of Hek293 cells, histone and tubulin acetylation; type: cell-based; settings: inhibitors 1 μM, tubA 0.5 μM, 24 h
Hek293 lysates = assay: deacylase activities of Hek293 lysates with inhibitors; type: cell-based; settings: 24 h; vorinostat and PD-106 1 μM, tubA 0.5 μM
class IIa HDACs = settings: cited from earlier work
RAW264.7 cells [5] = assay: cell viability of RAW264.7 cells; type: cell-based
RAW264.7 macrophages = assay: NO production in LPS-challenged RAW264.7 macrophages; type: cell-based; settings: 1 μM; decrease completely offset when normalized
A549 cell line = settings: reasonable concentrations; cited from earlier work
RAW264.7 cells [6] = assay: p65 and HDAC3 subcellular localization in LPS-treated RAW264.7 cells; type: cell-based; settings: after LPS treatment
RAW264.7 cells [7] = assay: HMGB-1 secretion from activated RAW264.7 cells; type: cell-based; settings: LPS-activated RAW264.7; 6 h
HDAC3 = HDAC3 (Homo sapiens, UniProt O15379); assay: HDAC3 coincubated with TFA substrate and inhibitor
Chain of HDAC3 (O15379 whole entry): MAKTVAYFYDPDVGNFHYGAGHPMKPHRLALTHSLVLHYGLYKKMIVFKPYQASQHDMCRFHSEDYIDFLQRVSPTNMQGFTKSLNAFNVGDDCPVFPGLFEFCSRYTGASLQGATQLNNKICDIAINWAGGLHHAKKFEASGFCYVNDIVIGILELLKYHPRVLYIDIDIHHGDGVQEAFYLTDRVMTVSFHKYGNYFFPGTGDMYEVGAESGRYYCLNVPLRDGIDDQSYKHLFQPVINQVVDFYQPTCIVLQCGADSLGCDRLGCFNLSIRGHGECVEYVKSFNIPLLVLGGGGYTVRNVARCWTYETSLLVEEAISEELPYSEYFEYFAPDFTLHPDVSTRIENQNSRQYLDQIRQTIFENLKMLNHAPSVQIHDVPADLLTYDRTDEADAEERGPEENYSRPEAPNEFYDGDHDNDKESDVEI
Chain of HDAC3 (Q9Y618 395-489 partner limits assumed): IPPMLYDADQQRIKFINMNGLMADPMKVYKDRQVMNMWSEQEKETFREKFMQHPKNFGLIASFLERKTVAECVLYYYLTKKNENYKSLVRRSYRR

CN1CCc2c(c3ccccc3n2Cc2ccc(C(=O)NO)cc2)C1 [Tubastatin A]
p53 Lys382 acetylation (HCT116 and HT29 cells): able to induce hyperacetylation of Lys382
p53 Lys382 acetylation (RAW264.7 cells [1]): do not demonstrate this increase
global protein formylation (Hek293 cells [2]): induced global protein hyperformylation
global protein valerylation (Hek293 cells [3]): nonsignificant hypovalerylation
histone H3 and H4 acetylation (Hek293 cells [4]): only affected acetylated tubulin levels
tubulin acetylation (Hek293 cells [4]): only affected acetylated tubulin levels
deacetylase activity of Hek293 lysates (Hek293 lysates): did not affect overall deacetylation activity; also recorded: no effect on deacetylation or devalerylation
deformylase activity of Hek293 lysates (Hek293 lysates): did lower deformylation activity
devalerylase activity of Hek293 lysates (Hek293 lysates): no effect on deacetylation or devalerylation

O=C(NO)C(c1ccccc1)c1ccccc1 [dPAHA, diphenyl acetic hydroxamic acid]
inhibitory activity for class IIa HDACs (class IIa HDACs): only possesses the ability to inhibit class IIa HDACs

Nc1ccccc1NC(=O)c1ccc(CNC(=O)OCc2cccnc2)cc1 [entinostat]
global protein formylation (Hek293 cells [2]): also capable of this effect
global protein valerylation (Hek293 cells [3]): global protein hypervalerylation
lethality (cell viability) (RAW264.7 cells [5]): more lethal than 2a–2c
histone H3 and H4 acetylation (Hek293 cells [4]): induced hyperacetylation of histones
tubulin acetylation (Hek293 cells [4]): without affecting tubulin acetylation levels
NO release, before normalization to cell count/viability (RAW264.7 macrophages): did lower NO release

C/C=C1\NC(=O)[C@H]2CSSCC/C=C/[C@H](CC(=O)N[C@H](C(C)C)C(=O)N2)OC(=O)[C@H](C(C)C)NC1=O [romidepsin]
p53 Lys373 and Lys382 acetylation (A549 cell line): induce hyperacetylation of Lys373 and Lys382

O=C(CCCCCCC(=O)Nc1ccccc1)NO [vorinostat]
nuclear localization of HDAC3 (RAW264.7 cells [6]): not as pronounced
HMGB-1 secretion (RAW264.7 cells [7]): prevents HMGB-1 secretion
global protein formylation (Hek293 cells [2]): caused global protein hyperformylation
global protein valerylation (Hek293 cells [3]): global protein hypervalerylation
lethality (cell viability) (RAW264.7 cells [5]): more lethal than 2a–2c
histone H3 and H4 acetylation (Hek293 cells [4]): induced hyperacetylation of tubulin and histones H3 and H4
tubulin acetylation (Hek293 cells [4]): induced hyperacetylation of tubulin and histones H3 and H4
deacetylase activity of Hek293 lysates (Hek293 lysates): inhibit both deacetylation and deformylation; also recorded: lowering in both deacetylation and devalerylation
deformylase activity of Hek293 lysates (Hek293 lysates): inhibit both deacetylation and deformylation
devalerylase activity of Hek293 lysates (Hek293 lysates): lowering in both deacetylation and devalerylation
NO release, before normalization to cell count/viability (RAW264.7 macrophages): did lower NO release
effect on HDAC3's ability to deacylate the TFA substrate (HDAC3): capable of altering HDAC3’s ability to deacylate the TFA substrate
